Laboratory results taken from patent US20200046671A1, “APOBEC3B MUTAGENESIS AND IMMUNOTHERAPY” (Regents of the University of Minnesota, priority 2015, published 2020).
Entries after “also recorded” stand apart in the source; their conditions may differ. Peptide text beside a SMILES is read from it. * marks the point of attachment. Cbz = O=C(OCc1ccccc1)*

Key:
Format in all cases: cell-based, human
APOBEC3B promoter region = experiment: Chromatin immunoprecipitation after PMA treatment of MCF10A cells; details: PMA for two hours, ChIP-qPCR
Method: Next, a series of chromatin immunoprecipitation (ChIP) experiments were performed to determine whether the canonical or noncanonical NFκB pathway is responsible for upregulating APOBEC3B. Primer sets were designed for each of the predicted NFκB binding sites near the APOBEC3B transcriptional start site, as well as a control set in the promoter region of NFKBIA (FIG. 3E). ChIP was performed for RELA, RELB, RNA POL II (positive control), and isotype matched IgG (negative control). RELA, RELB, and RNA POL II were all bound to the NFKBIA promoter following PMA treatment (FIG. 3F). In addition, RNA POL II strongly bound to the APOBEC3B gene near the transcriptional start site (FIG. 3F). Also, RELB bound both near the transcriptional start site and at sites 4 and 5, which are located in intron 2 and too close together to be distinguished by this procedure. Binding also may occur at lower levels at site 3 in intron 1, but the IgG signal was too high to distinguish background from actual binding. These ChIP data strongly implicate the noncanonical NFκB pathway, specifically RELB (and not RELA), in directly inducing APOBEC3B transcription in response to PMA activation of PKC.
MCF10A cells were treated with either DMSO or 25 ng/mL PMA for two hours. Cross-linking was performed with 1% formaldehyde for 10 minutes at room temperature and quenched with 150 mM glycine. […]

[1] = tested on: RELA, NFKB1, RELB and NFKB2; experiment: RNA sequencing of PMA-treated MCF10A cells, NFκB components; details: RNAseq
Method: (§1) Two sets of MCF10A cells in duplicate were treated every eight hours with media supplemented with PMA or DMSO for 48 hours. At 48 hours, RNA was extracted using an RNeasy Mini Kit (Qiagen, Hilden, Germany). Total RNA was submitted to the University of Minnesota Genomics Center for sequencing on the Illumina HiSeq 2000 platform. Raw reads were analyzed using both DESeq2 (Love et al., 2014, Genome Biol. 15:550) and the Tuxedo suite (Trapnell et al., 2012, Nat Protoc. 7:562-578) to identify changes in mRNA expression in PMA treated versus untreated cells.

APOBEC family members = experiment: mRNA levels of the other APOBEC family members after PMA treatment, RT-qPCR; details: MCF10A cells
Method: (§2) A panel of immortalized normal human epithelial cells lines and breast cancer cell lines was treated with the model PKC-NFκB pathway activator PMA (or equal amounts of DMSO as a negative control) and previously validated reverse transcription quantitative PCR (RT-qPCR) assays were used to measure mRNA levels of all eleven human APOBEC family members. APOBEC3B mRNA was induced specifically by PMA treatment of several lines including the immortalized normal breast epithelial cell line MCF10A (FIG. 6). Under standard cell culture conditions, MCF10A expresses low levels of APOBEC3B and APOBEC3F, even lower levels of APOBEC3G and APOBEC3H, high levels of APOBEC3C, and undetectable levels of all other APOBEC family members.
For induction experiments, 2.5×10^5 cells were plated in a 6-well plate 1 day prior to drug treatment. PMA was then added to the media and incubated at 37° C. with 5% CO2 for six hours unless otherwise indicated. Cells were harvested, RNA was extracted, and RT-qPCR was performed as previously reported (Refsland et al. 2010, Nucleic Acids Res 38:4274-4284). For experiments utilizing inhibitors, cells were pretreated with inhibitors 30 minutes prior to PMA induction (25 ng/mL). […]

APOBEC3B [2] = experiment: PMA induction of APOBEC3B mRNA in MCF10A cells, RT-qPCR
Method: as §2
(§3) For induction experiments, 2.5×10^5 cells were plated in a 6-well plate 1 day prior to drug treatment. PMA was then added to the media and incubated at 37° C. with 5% CO2 for six hours unless otherwise indicated. Cells were harvested, RNA was extracted, and RT-qPCR was performed as previously reported (Refsland et al. 2010, Nucleic Acids Res 38:4274-4284). For experiments utilizing inhibitors, cells were pretreated with inhibitors 30 minutes prior to PMA induction (25 ng/mL). PMA (Thermo Fisher Scientific, Inc., Waltham, Mass.), cyclohexamide (Acros Organics, Thermo Fisher Scientific, Inc., Waltham, Mass.), G66983 (Cayman Chemical co., Ann Arbor, Mich.), LY294002 (EMD Chemicals, Merck KGaA, Darmstadt, Germany), U0126 (EMD Chemicals, Merck KGaA, Darmstadt, Germany), AEB071 (Medchemexpress, Monmouth Junction, N.J.), Go6976 (Enzo Life Sciences, Inc., Farmingdale, N.Y.), BAY 11-7082 (R&D Systems, INc., Minneapolis, Minn.), and MG132 (Thermo Fisher Scientific, Inc., Waltham, Mass.) were stored as recommended. NIKi/Compound 31 was synthesized as described (Li et al., 2013, Bioorganic & Medicinal Chemistry Letters 23:1238-1244).

PKCα (PRKCA) = experiment: RNA sequencing of PMA-treated MCF10A cells, PKC isoforms; details: RNAseq, in comparison to DMSO
Method: as §1

[3] = tested on: PMA-induced APOBEC3B upregulation; experiment: Inhibitor pretreatment before PMA induction of APOBEC3B in MCF10A cells, RT-qPCR
Method: PMA is a well-known agonist of PKC, but it also affects other cellular processes. To determine whether APOBEC3B induction by PMA occurs through PKC signal transduction or an alternative mechanism, a panel of existing PKC inhibitors that vary with respect to class selectivity were analyzed. MCF10A cells were pre-treated for 30 minutes with varying concentrations of the pan-PKC inhibitor G66983 (Gschwendt et al., FEBS Lett. 392(2):77-80, 1996) and then treated for six hours with PMA (25 ng/mL). […] As additional controls, MCF10A cells were pretreated in parallel with the phosphoinositol 3 kinase (PI3K) inhibitor, LY294002, and the mitogen-activated protein kinase kinase (MEK) inhibitor, U0126, prior to PMA induction (FIGS. 2B and 2C).
as §3

MCF10A cells = experiment: Morphology and viability of inhibitor-treated MCF10A cells; details: low concentrations used (5 μM and around), data not shown
Method: PMA is a well-known agonist of PKC, but it also affects other cellular processes. To determine whether APOBEC3B induction by PMA occurs through PKC signal transduction or an alternative mechanism, a panel of existing PKC inhibitors that vary with respect to class selectivity were analyzed. MCF10A cells were pre-treated for 30 minutes with varying concentrations of the pan-PKC inhibitor G66983 (Gschwendt et al., FEBS Lett. 392(2):77-80, 1996) and then treated for six hours with PMA (25 ng/mL). […] APOBEC3B was suppressed to background levels with 5 μM G66983, as well as higher concentrations (FIG. 2A). […] As additional controls, MCF10A cells were pretreated in parallel with the phosphoinositol 3 kinase (PI3K) inhibitor, LY294002, and the mitogen-activated protein kinase kinase (MEK) inhibitor, U0126, prior to PMA induction (FIGS. 2B and 2C).

APOBEC3B [4] = experiment: Endogenous APOBEC3B expression in cancer cell lines treated with PKC inhibitor; details: 10 μM, 48 hours; breast, ovarian, bladder and head/neck cancer cell lines
Method: Four breast cancer cell lines, four ovarian cancer cell lines, four bladder cancer cell lines, and four head/neck cancer cell lines were analyzed to determine whether the constitutively high levels of endogenous APOBEC3B observed in many human cancer cell lines occurs through the PKC pathway. The selected cell lines expressed a 10-fold range of endogenous APOBEC3B mRNA levels (FIG. 4A).
(§4) Each line was treated for 48 hours with 10 μM AEB071, and then APOBEC3B mRNA and protein levels were quantified by RT-qPCR and immunoblotting. As above, no effects on the cell cycle or cell viability were observed (data not shown). This is important since higher concentrations of AEB071 are known to cause cell cycle perturbations and apoptosis in certain cell types. APOBEC3B mRNA levels were reduced by more than half in 7/16 cell lines, including the breast cancer cell lines MDA-MB-468, MDA-MB-453, and HCC1806, the ovarian cancer cell line OVCAR5, and the head/neck lines SQ-20B, JSQ3, and TR146 (FIG. 4B, histogram). Changes of protein levels largely mirrored the mRNA results (FIG. 4B, immunoblot).

cancer cell lines = experiment: Cell cycle and viability of AEB071-treated cancer cell lines; details: 10 μM, 48 hours, data not shown
Method: as §4

[5] = 30-minute pretreatment, then PMA 25 ng/mL for six hours

CCCCCCCCCCCCCC(=O)O[C@@H]1[C@@H](C)[C@@]2(O)[C@@H](C=C(CO)C[C@]3(O)C(=O)C(C)=C[C@@H]23)[C@@H]2C(C)(C)[C@]12OC(C)=O [PMA, phorbol 12-myristate 13-acetate] was tested, and the “recruitment of RELB and p105/p52 to the APOBEC3B promoter region” value (APOBEC3B promoter region) was “specifically and robustly recruited”, the “expression levels of canonical and noncanonical NFκB components after PMA treatment” value [1] was “unaffected” and the “changes in expression levels of other APOBEC family members” value (APOBEC family members) was “no detectable changes”. The “time after treatment at which significant APOBEC3B mRNA induction was detected” value (APOBEC3B [2]; PMA 25 ng/ml) was 30 min, the “time post-treatment by which maximal APOBEC3B mRNA levels were observed” value (APOBEC3B [2]; PMA 25 ng/ml) was “three” and the “PMA concentration at which APOBEC3B induction was near maximal” value (APOBEC3B [2]; dose response) was 25 ng/mL. The “lowest PMA concentration that induced APOBEC3B” value (APOBEC3B [2]; dose response) was 1 ng/mL and the “PKCα mRNA levels after PMA treatment” value (PKCα (PRKCA)) was “unchanged”.

In the case of NC(=O)Nc1sc(-c2ccc(F)cc2)cc1C(N)=O [TPCA-1], the “effect on PMA-induced APOBEC3B induction” value [3, 5] is reported as “near the IC50 for IKKα, not IKKβ”.

In the case of COc1ccc2c(c1)c(C1=C(c3c[nH]c4ccccc34)C(=O)NC1=O)cn2CCCN(C)C [G66983], the “morphological defects or viability issues” value (MCF10A cells) is reported as “No morphological defects or viability issues”, the “concentration at which APOBEC3B was suppressed to background levels” value [3, 5] is reported as 5 µM and the “effect on PMA-induced APOBEC3B induction” value [3, 5] is reported as “dose responsive suppression”. The “effect on PMA-induced APOBEC3B induction” value ([3]; 30-minute pretreatment, then PMA 25 ng/mL for six hours, listed as Go6983) was “inhibited”.

With CN(C)CCCn1cc(C2=C(c3c[nH]c4ccccc34)C(=O)NC2=O)c2ccccc21 [BIM-1] the “effect on PMA-induced APOBEC3B induction” value [3, 5] was “inhibited”.

In the case of CN1CCN(c2nc(C3=C(c4c[nH]c5ccccc45)C(=O)NC3=O)c3ccccc3n2)CC1 [AEB071], the “cell lines in which APOBEC3B mRNA levels were reduced by more than half” value (APOBEC3B [4]) is reported as 7/16, the “effects on the cell cycle or cell viability” value (cancer cell lines) is reported as “no effects” and the “potency relative to G66983 in suppressing APOBEC3B induction” value [3] is reported as “approximately 10 fold”. For the same compound, the “effect on PMA-induced APOBEC3B induction” value [3, 5] was “inhibited; also recorded: clear dose dependent suppression” and the “concentration causing complete suppression of APOBEC3B induction” value ([3]; pretreatment, then PMA) was 500 nM.

Cn1c2ccccc2c2c3c(c4c5ccccc5n(CCC#N)c4c21)CNC3=O [Go6976] was tested, and the “effect on PMA-induced APOBEC3B induction” value [3, 5] was “inhibited”.

For N#CC(=C(/N)Sc1ccccc1N)/C(C#N)=C(\N)Sc1ccccc1N [U0126], the “effect on PMA-induced APOBEC3B induction” value [3, 5] was “no suppression” and the “effect on PMA-induced APOBEC3B induction” value ([3]; 30-minute pretreatment, then PMA 25 ng/mL for six hours, listed as UO126) was “not”.

Cc1ccc(S(=O)(=O)/C=C/C#N)cc1 [BAY 11-7082] was tested, and the “effect on PMA-induced APOBEC3B induction” value [3, 5] was “dose responsive inhibition; also recorded: strong dose-responsive drops”.

For C[C@@H]1C[C@@H]([C@H](O)CC2CC(=O)NC(=O)C2)C(=O)[C@@H](C)C1 [cyclohexamide], the “effect on kinetics of APOBEC3B upregulation by PMA” value ([3]; 30-minute pretreatment with 10 μg/mL cyclohexamide) was “not affected”.

For CC(C)C[C@@H](C=O)NC(=O)[C@H](CC(C)C)NC(=O)[C@H](CC(C)C)NC(=O)OCc1ccccc1 [MG132] (Cbz-Leu-Leu-Leu-aldehyde), the “effect on PMA-induced APOBEC3B induction” value [3, 5] was “dose responsive inhibition; also recorded: decreased in a dose dependent manner”.
